Residues, ends and D or L forms follow the SMILES beside them.
Test system: HCT-116
Test: Cytotoxicity against human HCT116 cells assessed as cell viability by MTS assay
Assay type: functional, cell-based

| Structure (SMILES) | EC50 |
| --- | --- |
| CC[C@H](C)[C@@H]1NC(=O)[C@H](CC(C)C)NC(=O)[C@@H]2CCCN2C(=O)[C@H](Cc2ccccc2)NC(=O)[C@@H]2CCCN2C(=O)[C@H](Cc2ccccc2)NC(=O)[C@@H]2CCCN2C1=O (cyclo(FPFPLIP)) | > 200 µM |
| CC[C@H](C)[C@@H]1NC(=O)[C@@H]2CCCN2C(=O)[C@H](Cc2c[nH]c3ccccc23)NC(=O)[C@@H]2CCCN2C(=O)[C@H](C(C)C)NC(=O)[C@H](Cc2ccccc2)NC(=O)[C@H](CO)NC1=O (cyclo(FVPWPIS)) | 5.7 µM |
